Columns and labels:
[1] = test system: mice; assay: Righting reflex assay; assay type: in vivo, mouse
Text: Righting Reflex Assay: Mice were held at the neck and tail, rotated to supine position on a flat surface, and quickly released. Time to right was quantified as moment of release to moment when all 4 legs touched the ground. A five second threshold was used to classify righting success (less than 5 seconds) from failure (more than 5 seconds). […] Illumination began for 30 seconds, and then the mouse was swiftly inverted onto the flat surface.

[2] = test system: mice; assay: Observation for seizure-like signs after ketamine; assay type: in vivo, mouse; settings: dissociative doses of ketamine
Text: One characteristic of seizures is increased synchrony. While the ketamine-induced rhythm involved increased synchrony in neuronal firing, the initiation, spread, maintenance/termination, and behavior were distinguishable from typical seizures.

[3] = test system: mice; assay: Open field test; assay type: in vivo, mouse; settings: 5 min; vs saline; doses of b234
Text: Open Field Test: Mice were placed in an evenly illuminated 50 cm×50 cm open field test box. Mouse position was captured using a webcam and Viewer software (Biobserve).

[4] = test system: mouse; assay: Ketamine dose-effect relationship in mouse
Protocol: (2 mg/kg), lidocaine (topical), LSD ((+)-Lysergic acid diethylamide (+)-tartrate (2:1), 0.3 mg/kg), and diazepam (2 mg/kg). […] For anti-depressant effects, human doses are typically 0.3-1 mg/kg, and in mouse 3-10 mg/kg.

[5] = test system: retrosplenial cortex (RSP) neurons; assay: Two-photon imaging of RSP; assay type: in vivo, mouse
Protocol: Mice were anesthetized with isoflurane and the skull above retrosplenial cortex was removed and replaced with a 7 mm circular glass coverslip. For layer 1 experiments, ThylGcaMP6s mice were used. For layer 2/3 experiments, Cux2-CreER;Ai148 mice were used (tamoxifen dissolved in corn oil was injected intraperitoneally at 0.1 mg/g at least 2 weeks prior to imaging). For layer 5 experiments, Rbp4-Cre mice were injected locally in retrosplenial with 800 nL AAVdj-Ef1a-DIO-GCaMP6f (titer 5E12) at stereotactic coordinates (−3AP, 0.5 ML, −0.6DV). Mice were given >=1 week to recover before imaging. Awake, head-fixed imaging was performed on a standard two photon microscope (NeuroLabWare, Los Angeles, CA). A 16×0.8 NA Nikon objective was immersed in clear ultrasound gel for imaging (Aquasonic, Parker Laboratories); frame rate of 30 Hz. Although we observed oscillations in RSP with 50 mg/kg, we were concerned that 50 mg/kg may be too low a dose to sensitively detect a potentially weaker signal in visual cortex or layer 2/3, and so we used 80 mg/kg in these experiments.
Two-photon tiff stack videos were registered to the average image using the TurboReg ImageJ plug-in using rigid body transformations. […] Contaminating neuropil signal was estimated from an annulus surrounding each soma mask and removed using the function F(t)=Fsoma(t)−0.3*Fneuropil(t), where Fsoma(t) is the somatic DF/F and Fneuropil(t) is the DF/F from an annulus 4 pixels wide surrounding each soma mask. The resulting traces were detrended and z-scored. The full frame fluorescence (used for quantifying layer 1 neuropil oscillations) was computed by summing all of the pixels in each frame on each time point, and then computing DF/F the same way, with no neuropil subtraction step.
Each trace (corresponding to either a fiber photometry signal, a cellular two-photon signal, a widefield regional centroid, a widefield pixel, an sEEG trace, or a smoothed spike rate Neuropixels trace) was z-scored, and the power spectral density (PSD) was then estimated using Welch's method (pwelch( ) in Matlab), with a window size of 10*fs (15*fs for human sEEG) where fs is the sampling rate of the signal. The average band power within a specified band (i.e. 1-3 Hz) was then computed by integrating the PSD estimate (bandpower in Matlab). For displaying the traces of individual cells, traces were each zscored by subtracting the mean value of the trace (across the whole recorded time window) and dividing by the standard deviation of the trace. Unless otherwise indicated, the PSD was computed across the time window from minutes 10 to 11 post-injection.

[6] = test system: mice; assay: Tail suspension test; assay type: in vivo, mouse
Protocol: Tail Suspension Test: Mouse activity was recorded using a 60 Hz web camera. Struggling activity was quantified for minutes 2-10. […] Illumination began 30 seconds before tails were secured with tape and suspended from the beam. Mice were excluded if they climbed on their own tails.

[7] = test system: mice; assay: Hot plate test
Protocol: Hot Plate Test: Mice were placed on the hot plate (Bioseb), which was set to 55° C. and surrounded by a clear circular perimeter. Mouse activity was recorded using two cameras from different angles. The experiment ended when the mouse jumped to escape or 90 seconds had elapsed. Care was taken to clean and dry the hot plate apparatus between animals. For optogenetic experiments, mice were connected to patch cords and then returned to a holding cage. Illumination began 30 seconds before mice were placed on the hot plate.

[8] = test system: neurons throughout the brain; assay: Simultaneous recording from four Neuropixels probes with i.p. drug delivery
Protocol: Mice were anesthetized with isoflurane, carefully leveled in a stereotaxic apparatus and their scalp and periosteum were removed. A 3% hydrogen peroxide in saline solution was used to clean the surface of the skull. A custom stainless steel headbar was leveled on the skull and attached using clear dental cement. After the cement had dried, targeted probe entry sites were stereotaxically marked on the cement layer with a permanent marker (Day 1: “mPFC”, 2.3AP, 0.6 ML; “somatosensory”, −0.7AP, −4.0 ML; “retrosplenial”, −2AP, −1 ML; “subiculum”, −3.5AP, 2.14 ML; Day 2: “OFC”: 2.5AP, 1.5 ML; “mPFC”: 2.3AP, −0.6 ML; “retrosplenial”, −2AP, 1 ML; “thalamus”, −1.5AP, −1.7 ML). […] A 2 mm long insulated platinum-iridium wire was implanted centrally over the cerebellum, with the last several hundred microns bared to serve as an electrical reference.
Mice were acclimated to head fixation and the recording rig over several days before recording. Several hours before recording, mice were anesthetized for approximately 30 minutes each while small 1 mm craniotomies were made over four pre-marked areas. Craniotomies were kept clean of bone fragments and made such that bleeding was minimized. The skull was covered with a pool of saline and with Quik-Cast to protect and keep moist craniotomies before recording. Mice recovered in their homecages before recording. Immediately prior to recording set up, mice were very briefly anesthetized with isoflurane and implanted with an IV catheter system (BD Saf-T-Intima Closed IV Catheter System: 22G ×¾″, containing an integrated Y adaptor and safety lock) to their intraperitoneal cavity and affixed with glue. […] While still anesthetized, mice were headfixed and tubing was secured stably to a custom mouse holder by tape. Quik-Cast was removed from the skull, and craniotomies were briefly cleaned before being submerged in a pool of saline. Four Neuropixels 1.0 probes^43,44, were grounded together with the mouse reference electrode, coated with red fixable dye (CM-Dil, ThermoFisher), positioned over each craniotomy, and carefully inserted at approximately 15 degrees from the vertical axis to depths of 4-5 mm at a rate of approximately 3 um/s. Following the completion of all insertions, the probes were allowed to rest for at least 10 minutes before the recording began. 30 kHz data was acquired from the four probes simultaneously using the Neuropixels control system (as described in the User Manual) and SpikeGLX software (billkarsh.github.io/SpikeGLX/). The four acquisitions were synchronized using a common squarewave signal recorded for all probes and aligned to the nearest pulse edge. Following the beginning of recording, a 20-minute baseline period of activity was collected. […]

[9] = test system: mouse; settings: cited from earlier work
[10] = controls (wild-type), 50 mg/kg ketamine

CNC1(c2ccccc2Cl)CCCCC1=O (stereo not drawn) [ketamine]
Righting-reflex test for consciousness ([1]; anesthetic ketamine 200 mg/kg): abolished by anesthetic ketamine | Righting-reflex test for consciousness ([1]; subanesthetic ketamine doses): preserved in all animals | Righting of postural inversion ([1]; wild-type and knockout mice, ketamine): all mice successfully-righted postural inversion | Seizure-like signs [2]: no rigidity, convulsive movements, absence-like states, or salivation/rearing/falling were observed | Open-field locomotion velocity [3]: decreased velocity | Lowest tested dose causing the oscillation and behavioral effects [4]: 25 mg/kg | Oscillation / population synchrony in layer 2/3 RSP neurons ([5]; Cux2-CreER mice, ketamine): neither oscillating neurons nor population synchrony were observed | Oscillation / population synchrony in layer 5 RSP neurons ([5]; Rbp4-Cre mice, ketamine): exhibited synchronous activity | Hedge's g effect-size, mean 1-3 Hz power before/after ketamine, layer 2/3 RSP cells (FIG. 1I) ([5]; n=5 mice): −0.46 | Hedge's g effect-size, mean 1-3 Hz power before/after ketamine, layer 5 RSP cells (FIG. 1I) ([5]; n=5 mice): 3.16 | Oscillation in superficial neuropil, RSP vs neighboring visual cortex ([5]; two-photon, cranial window, 80 mg/kg): observed the oscillation in RSP but not neighboring visual cortex | Tail suspension-escape behavior vs. wild-type ([6]; both channel-knockouts (HCN1, GRIN1), ketamine): modestly-recovered tail suspension-escape behavior | Tail-suspension escape responses ([6]; ketamine >=25 mg/kg): suppressed tail-suspension escape responses | Affective behavior ([7]; GRIN1 knockouts, ketamine): without recovery of affective behavior | Affective paw-licking ([7]; HCN1-KO mice with RSP Cre-virus, 50 mg/kg ketamine): strikingly restored affective paw-licking | Affective paw-licking [7, 10]: abolished affective paw-licking | Reflexive paw-flicks [7, 10]: preserving reflexive paw-flicks | Affective behaviors ([7]; ketamine 13 mg/kg): consistently preserved at 13 mg/kg | Affective behaviors ([7]; ketamine 25 mg/kg): selectively abolished at 25 mg/kg | Affective/emotional defensive behavior (paw-lick) ([7]; ketamine at 25 and 50 mg/kg): abolished affective/emotional | Motivational defensive behavior (jump-to-escape) ([7]; ketamine at 25 and 50 mg/kg): abolished | Reflexive responses (paw-flick) ([7]; ketamine dose series): did not reduce reflexive responses | Correlations of brain regions with RSP ([8]; 8-12 min after ketamine injection (50 mg/kg i.p.)): correlations with RSP were reduced | Coupling of anteromedial thalamic neurons with RSP ([8]; subanesthetic ketamine): oscillate out-of-phase with RSP | Coupling of laterodorsal and anteroventral thalamus ([8]; subanesthetic ketamine): became more-strongly correlated to each other and RSP | Rhythmicity of subcortical regions ([8]; subanesthetic ketamine): specific subcortical regions (inaccessible to cortical imaging) exhibiting increased rhythmicity | Doses for anti-depressant effects [9]: 3 to 10 mg/kg

From US20230346884A1, “Molecular Targets for Modulation of Dissociative and Associative States” (The Board of Trustees of the Leland Stanford Junior …, priority 2020, published 2023)
